Experimental data as given in ChEMBL document CHEMBL1152676, “Combretastatin-like chalcones as inhibitors of microtubule polymerization. Part 1: synthesis and biological evaluation of antivascular activity” (Bioorg Med Chem, 2009).
The source made the active and inactive calls. The calls are words filed in the database; no cut-off is given here.

Assays:
[1] = tested on: K562; assay: Antiproliferative activity against human K562 cells after 5 days by MTT assay; format: functional, cell-based
[2] = tested on: HUVEC; assay: Antivascular activity in HUVEC cells assessed as change in cell shape at 1 uM after 1 hr by fluorescent-labeled high molecular weight F-dextran permeability assay; format: functional, cell-based; settings: Homo sapiens
[3] = tested on: K562; assay: Cell cycle arrest in human K562 cells assessed as accumulation at G2/M phase at 20 nM after 24 hrs by propidium iodide staining-based flow cytometry; format: functional
[4] = Inhibition of tubulin assembly by Woods method
[5] = tested on: K562; assay: Cell cycle arrest in human K562 cells assessed as accumulation at G0/G1 phase at 20 nM after 24 hrs by propidium iodide staining-based flow cytometry; format: functional
[6] = tested on: K562; assay: Cell cycle arrest in human K562 cells assessed as accumulation at S phase at 20 nM after 24 hrs by propidium iodide staining-based flow cytometry; format: functional
[7] = Displacement of [3H]colchicine from tubulin assessed as bound colchicine at […] incubated in dark for 2 hrs by scintillation spectroscopy

Row | SMILES | IC50 ([1]; Homo sapiens, K562, 120 h) [nM] | other results
1 | COc1ccc(C(=O)/C=C/c2cc(OC)c(OC)c(OC)c2)c(O)c1 | 4400 | 
2 | Cc1ccc(/C=C/C(=O)c2ccc(C)cc2)cc1 [4,4'-DIMETHYLCHALCONE] | 11000 | 
3 | COc1ccc(C(=O)[C@H]2O[C@@H]2c2ccc(C)cc2)cc1 (relative stereo) | > 30000 | 
4 | COc1ccc(C(=O)[C@H]2O[C@@H]2c2ccc(OC)cc2)cc1 (racemic) | > 30000 | 
5 | COc1cc(/C=C(\C)C(=O)c2cc(OC)c(OC)c(OC)c2)cc(OC)c1OC | 2500 | 
6 | COc1ccc([C@H]2O[C@@H]2C(=O)c2ccc(C)cc2)cc1 (racemic) | 15000 | 
7 | COc1ccc(/C=C\c2cc(OC)c(OC)c(OC)c2)cc1OP(=O)(O)O |  | Activity [2]: Active
8 | COc1ccc(OC)c(/C=C/C(=O)c2c(OC)cc(OC)cc2OC)c1 | 7200 | 
9 | COc1ccc(/C=C\c2cc(OC)c(OC)c(OC)c2)cc1O [COMBRETASTATIN A4] |  | Activity [3]: 90%; IC50 [4]: 100 nM; Activity [5]: 2%; Activity [6]: 8%; Activity [7]: 8%
10 | COc1ccc(CCC(=O)c2cc(OC)c(OC)c(OC)c2)cc1O | 1000 | 
11 | COc1cc(/C=C/C(=O)c2ccc(F)cc2)cc(OC)c1OC | 1600 | 
12 | COc1ccc(C(=O)[C@H]2O[C@@H]2c2ccc(OC)c(OC)c2)cc1 (racemic) | > 30000 | 
13 | O=C(/C=C/c1ccc2c(c1)OCO2)c1ccc2c(c1)OCCO2 | 8000 | 
14 | COc1ccc(/C=C/C(=O)c2cc(OC)c(OC)c(OC)c2)cc1F | 300 | Activity [3]: 72%; IC50 [4]: 1200 nM; Activity [5]: 9%; Activity [6]: 19%
15 | COc1cc(C(=O)/C=C/c2ccc(Cl)cc2Cl)cc(OC)c1OC | 3800 | 
16 | COc1ccc(/C=C/C(=O)c2ccc(OC)c(OC)c2OC)cc1F | 350 | Activity [3]: 49%; IC50 [4]: 7900 nM; Activity [5]: 37%; Activity [6]: 14%
17 | COc1ccc(C(=O)/C=C/c2cc(OC)ccc2OC)c(Cl)c1 | 4000 | 
18 | Cc1ccc(C(=O)[C@H]2O[C@@H]2c2ccc(C)cc2)cc1 (racemic) | 12000 | 
19 | COc1cc(C(=O)/C=C/c2cc(OC)c(OC)c(OC)c2)ccc1O | 3500 | 
20 | COc1ccc(C(=O)CCc2cc(OC)c(OC)c(OC)c2)cc1 | 12000 | 
21 | COc1cc(OC)c(C=C(C)C(=O)c2cc(OC)c(OC)c(OC)c2)c(OC)c1 | > 25000 | 

Row | SMILES | IC50 ([1]; Homo sapiens, K562, 120 h) [nM] | other results
22 | COc1ccc(C(=O)/C=C/c2ccc(OC)c(OP(=O)(O)O)c2)cc1 [listing 1 of 2 here] |  | IC50 ([1]; k562): 300 nM
23 | COc1ccc(/C=C/C(=O)c2ccc(OC)cc2)cc1 [4,4'-DIMETHOXYCHALCONE] | 15000 | 
24 | COc1ccc(/C=C/C(=O)c2ccc(OC)c(OC)c2)cc1OC | 2200 | 
25 | COc1cc(C(=O)/C=C/c2ccc(OCc3ccccc3)cc2)cc(OC)c1OC | 9900 | 
26 | CCO/C(=C\c1cc(F)c(OC)c(F)c1)C(=O)c1cc(OC)c(OC)c(OC)c1 | 230 | 
27 | COc1ccc(CCC(=O)c2cc(OC)c(OC)c(OC)c2)cc1 | 10000 | 
28 | COc1ccc(/C=C/C(O)c2cc(OC)c(OC)c(OC)c2)cc1 (stereo not drawn) | 4000 | 
29 | CCO/C(=C\c1ccc(OC)c(F)c1)C(=O)c1cc(OC)c(OC)c(OC)c1 | 11 | 
30 | COc1ccc(C(=O)/C(C)=C/c2cc(OC)ccc2OC)cc1 | 2300 | 
31 | COc1ccc(OC)c(C(=O)/C=C/c2ccc(N(C)C)cc2)c1 | 40 | 
32 | COc1ccc(/C=C/C(=O)c2ccc(C)cc2)cc1 | 20000 | 
33 | COc1cc(C(=O)/C=C/c2ccc(F)cc2)cc(OC)c1OC | 1500 | 
34 | COc1ccc(C(=O)/C=C/c2ccc(O)c(O)c2)c(OC)c1OC | 1700 | 
35 | COc1ccc(CCC(O)c2cc(OC)c(OC)c(OC)c2)cc1 (stereo not drawn) | 4000 | 
36 | COc1ccc(C(=O)/C(C)=C/c2ccc(OC)c(OP(=O)([O-])[O-])c2)cc1.[Na+].[Na+] |  | Activity [3]: 69%; IC50 ([1]; k562): 0.12 nM; IC50 [4]: 3100 nM; Activity [5]: 21%; Activity [6]: 10%
37 | COc1ccc(/C=C/C(=O)c2ccc(OC)c(OC)c2OC)cc1O | 10 | Activity [3]: 40%; IC50 [4]: 450 nM; Activity [5]: 32%; Activity [6]: 28%
38 | COc1cc(C(=O)[C@H]2O[C@@H]2c2cc(OC)c(OC)c(OC)c2)cc(OC)c1OC (relative stereo) | 3700 | 
39 | COc1ccc(/C=C/C(=O)c2ccc3c(c2)OCO3)cc1OC | 7100 | 
40 | CCO/C(=C\c1ccc(OC)c(O)c1)C(=O)c1cc(OC)c(OC)c(OC)c1 | 2.6 | 
41 | COc1ccc(CCC(O)c2cc(OC)c(OC)c(OC)c2)cc1O (stereo not drawn) | 1000 | 
42 | COc1cc(/C=C/C(=O)c2ccccc2)cc(OC)c1OC | 1600 | 

Row | SMILES | IC50 ([1]; Homo sapiens, K562, 120 h) [nM] | other results
43 | COc1ccc(C(=O)/C=C/c2ccc(Cl)cc2)c(O)c1 | 9700 | 
44 | COc1ccc(/C=C(\C)C(=O)c2ccc(OC)cc2)cc1 | 1900 | 
45 | COc1cc(OC)c(C(=O)/C=C/c2ccc(OC)c(OC)c2OC)c(OC)c1 | 300 | Activity [3]: 74%; IC50 [4]: 15000 nM; Activity [5]: 10%; Activity [6]: 16%; Activity [7]: 27%
46 | COc1ccc(C(=O)/C=C/c2ccc(OC)c(OC)c2)c(O)c1 | 16000 | 
47 | COc1ccc(CC(C)C(=O)c2cc(OC)c(OC)c(OC)c2)cc1O (stereo not drawn) | 30 | Activity [3]: 28%; IC50 [4]: 4000 nM; Activity [5]: 36%; Activity [6]: 36%
48 | COc1ccc(OC)c(/C=C/C(=O)c2ccc3c(c2)OCO3)c1 | 6400 | 
49 | COc1cc(C(=O)/C=C/c2ccc(O)c(O)c2)cc(OC)c1OC | 1200 | 
50 | COc1cc(/C=C/C(=O)c2ccc3c(c2)OCO3)cc(OC)c1OC | 2900 | 
51 | COc1cc(C(=O)/C(C)=C/c2cc(F)c(OC)c(F)c2)cc(OC)c1OC | 50 | Activity [3]: 72%; IC50 [4]: 2400 nM; Activity [5]: 4%; Activity [6]: 24%; Activity [7]: 25%
52 | COc1ccc(/C=C/C(O)c2cc(OC)c(OC)c(OC)c2)cc1O (stereo not drawn) | 500 | 
53 | COc1ccc(/C=C/C(=O)c2ccc(C)cc2)cc1O | 1500 | 
54 | CCCO/C(=C\c1cc(F)c(OC)c(F)c1)C(=O)c1cc(OC)c(OC)c(OC)c1 | 220 | 
55 | COc1ccc(/C=C/C(=O)c2cc(OC)c(OC)c(OC)c2)cc1N | 10 | Activity [3]: 19%; IC50 [4]: 2000 nM; Activity [5]: 48%; Activity [6]: 33%
56 | CCCO/C(=C\c1ccc(OC)c(F)c1)C(=O)c1cc(OC)c(OC)c(OC)c1 | 20 | 
57 | O=C(/C=C/c1ccccc1)c1ccccc1 [CHALCONE] | 3800 | 
58 | COc1ccc(/C=C/C(=O)c2cc(OC)c(OC)c(OC)c2)cc1OC | 300 | Activity [3]: 44%; IC50 [4]: > 25000 nM; Activity [5]: 31%; Activity [6]: 25%; Activity [7]: 62%
59 | COc1ccc(CCCc2cc(OC)c(OC)c(OC)c2)cc1 | 500 | 
60 | O=C(/C=C/c1ccc2c(c1)OCO2)c1ccc(F)cc1 | 5100 | 
61 | COc1cc(/C=C/C(=O)c2ccc3c(c2)OCCO3)cc(OC)c1OC | 5600 | 
62 | COc1ccc(/C=C/C(=O)c2ccc(OC)c(OC)c2OC)cc1 | 300 | 
63 | COc1cc(C(=O)[C@H]2O[C@@H]2c2ccc(C)cc2)cc(OC)c1OC (racemic) | 3400 | 

Row | SMILES | IC50 ([1]; Homo sapiens, K562, 120 h) [nM] | other results
64 | COc1ccc(C(=O)/C=C/c2ccc(OC)c(OP(=O)([O-])[O-])c2)cc1.[Na+].[Na+] |  | Activity [3]: 64%; IC50 ([1]; k562): 8 nM; IC50 [4]: 39000 nM; Activity [5]: 22%; Activity [6]: 14%
65 | COc1ccc(C(=O)/C(C)=C/c2ccc(OC)c(OP(=O)(O)O)c2)cc1 |  | IC50 ([1]; k562): 500 nM
66 | CN(Cc1cnc2nc(N)nc(N)c2n1)c1ccc(C(=O)N[C@@H](CCC(=O)O)C(=O)O)cc1 |  | Activity [2]: inactive
67 | COc1ccc(C(=O)/C=C/c2ccc(OC)c(OP(=O)(O)O)c2)cc1 [listing 2 of 2 here] |  | Activity [2]: Active; Activity [7]: 83%
68 | COc1ccc(C(=O)/C=C/c2cc(OC)c(OC)c(OC)c2)cc1OC | 1100 | 
69 | COc1ccc(/C=C/C(=O)c2ccc(OC)c(OC)c2)cc1 | 10000 | 
70 | COc1ccc(/C=C/C(=O)c2cc(OC)c(OC)c(OC)c2)cc1[N+](=O)[O-] | 4000 | 
71 | CCC/C(=C\c1ccc(OC)c(O)c1)C(=O)c1cc(OC)c(OC)c(OC)c1 | 2.2 | 
72 | O=C(/C=C/c1ccc(F)cc1)c1ccc(F)cc1 | 4900 | 
73 | COc1ccc(/C=C/C(=O)c2ccc(OC)cc2OC)cc1 [METOCHALCONE] | 2700 | 
74 | COc1ccc(/C=C/C(=O)c2ccc(O)cc2)cc1 | 9900 | 
75 | COc1ccc(/C=C(\C)C(O)c2cc(OC)c(OC)c(OC)c2)cc1O (stereo not drawn) | 90 | Activity [3]: 24%; IC50 [4]: > 10000 nM; Activity [5]: 44%; Activity [6]: 33%
76 | COc1ccc(/C=C/C(=O)c2cc(OC)c(OC)c(OC)c2)cc1 | 300 | 
77 | COc1cc(C(=O)/C=C/c2ccc(Cl)cc2)cc(OC)c1OC | 1500 | 
78 | COc1ccc(C(=O)/C=C/c2cc(F)c(OC)c(F)c2)c(OC)c1OC | 4800 | Activity [3]: 46%; IC50 [4]: 31000 nM; Activity [5]: 51%; Activity [6]: 3%
79 | COc1ccc(/C=C(\C)C(=O)c2cc(OC)c(OC)c(OC)c2)cc1[N+](=O)[O-] | 60 | Activity [3]: 28%; IC50 [4]: > 10000 nM; Activity [5]: 36%; Activity [6]: 36%
80 | COc1ccc([C@H]2O[C@@H]2C(=O)c2cc(OC)c(OC)c(OC)c2)cc1 (racemic) | 4900 | 
81 | COc1ccc(CC(C)C(O)c2cc(OC)c(OC)c(OC)c2)cc1O (stereo not drawn) | 600 | 
82 | COc1cc(C(=O)/C=C/c2cc(F)c(OC)c(F)c2)cc(OC)c1OC | 6200 | Activity [3]: 61%; IC50 [4]: 12000 nM; Activity [5]: 20%; Activity [6]: 19%
83 | COc1ccc(OC)c(C(=O)/C=C/c2ccc3c(c2)OCCO3)c1 | 300 | 
84 | COc1cc(/C=C/C(=O)c2cc(OC)c(OC)c(OC)c2)cc(OC)c1OC | 1500 | 
